The text below walks through data of patent publication US8273770B2, “5-pyridinone substituted indazoles” (Albany Molecular Research, Inc., priority 2007, dated 2012).

Each structure is given as a SMILES string. Structures can show the parent of a compound that is named as a salt.

One may read the melting point as the temperature of the solid-liquid transition. By Ki is commonly meant a measure of affinity in units of concentration, obtained from inhibition or displacement.

The target in data set [1] is T1, human MCH1 receptor (Homo sapiens, UniProt Q99705).
T1 construct: host or cells: CHO cells (assay I)
T1 sequence (Q99705 whole entry): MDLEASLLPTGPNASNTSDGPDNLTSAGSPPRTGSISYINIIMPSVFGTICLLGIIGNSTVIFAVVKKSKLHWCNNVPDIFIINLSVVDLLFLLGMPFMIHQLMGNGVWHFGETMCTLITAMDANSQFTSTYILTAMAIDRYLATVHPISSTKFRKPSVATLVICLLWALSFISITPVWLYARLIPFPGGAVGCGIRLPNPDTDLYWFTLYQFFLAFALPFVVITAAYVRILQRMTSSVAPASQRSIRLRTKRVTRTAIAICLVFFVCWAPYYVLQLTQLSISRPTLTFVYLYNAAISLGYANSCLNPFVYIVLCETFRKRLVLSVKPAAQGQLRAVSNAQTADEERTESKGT
As to the kind of experiment: MCH1 binding assay I or II (radioligand binding, membranes of CHO cells expressing the receptor). The settings on record: estimated based on the measured percent inhibition. An excerpt: Binding Assay I for Human Melanin-Concentrating Hormone (MCH1) Receptor
Evaluation of the affinity of compounds for the human MCH1 receptor was accomplished in transfected Chinese Hamster Ovary (CHO) cells determined in a radioligand binding assay, as described in MacDonald et al., “Molecular characterization of the melanin-concentrating hormone/receptor complex: identification of critical residues involved in binding and activation”, Mol Pharmacol., 58:217 (2000). […] Nonspecific binding was determined in the presence of 0.1 μM MCH. […] The filters were dried, then counted for radioactivity in a scintillation counter (Topcount, Packard) using a scintillation cocktail (Microscint 0, Packard).
The results are expressed as a percent inhibition of the control radioligand specific binding. The IC50 value (concentration causing a half-maximal inhibition of control specific binding) and Hill coefficient (nH) were determined by non-linear regression analysis of the competition curve using Hill equation curve fitting. The inhibition constant (Ki) was calculated from the Cheng Prusoff equation: (Ki=IC50/(1+(L/KD)), where L=concentration of radioligand in the assay, and KD=affinity of the radioligand for the receptor). […]
The results are expressed as a percent inhibition of the control radioligand specific binding. […]

The compound `Cl.O=c1cc(-c2ccc3ccccc3c2)ccn1-c1ccc2c(cnn2CCN2CCCC2)c1` registered a melting point of 128 to 134 °C.

As for `Cl.O=c1cc(-c2ccc(C(F)(F)F)cc2C(F)(F)F)ccn1-c1ccc2c(cnn2CCN2CCCC2)c1`, the melting point was 235 to 245 °C.

The compound `CN(C)CCCn1ncc2cc(-n3ccc(-c4ccc(C(F)(F)F)cc4)cc3=O)ccc21.Cl` yielded a melting point of 209 to 211 °C.

`COc1cc(Cl)ccc1-c1ccn(-c2ccc3c(cnn3CCN3CCCC3)c2)c(=O)c1.Cl` yielded a melting point of 248 to 256 °C.

With `Cl.N#Cc1ccc(-c2ccn(-c3ccc4c(cnn4CCN4CCCC4)c3)c(=O)c2)cc1`, the melting point fell in the range of 92 to 96 °C.

`Cc1cc(OC(F)(F)F)ccc1-c1ccn(-c2ccc3c(cnn3CCN3CCCC3)c2)c(=O)c1.Cl`: the melting point was 185 to 195 °C.

For the compound `Cl.O=c1cc(-c2ccc(C(F)(F)F)cc2F)ccn1-c1ccc2c(cnn2CCN2CCCC2)c1`, the melting point fell in the range of 80 to 95 °C.

Take `COc1ccc2[nH]c(-c3ccn(-c4ccc5c(cnn5CCN5CCCC5)c4)c(=O)c3)cc2c1.Cl`: the melting point fell in the range of 275 to 280 °C.

For the compound `Cl.N#Cc1cc(F)ccc1-c1ccn(-c2ccc3c(cnn3CCN3CCCC3)c2)c(=O)c1`, the melting point was in the range of 81 to 86 °C.

For `CCCCOc1ccc(-c2ccn(-c3ccc4c(cnn4CCN4CCCC4)c3)c(=O)c2)c(C)c1.Cl`, the melting point fell in the range of 80 to 95 °C.

For the compound `Cl.O=c1cc(-c2ccc(C(F)(F)F)cc2)ccn1-c1ccc2c(cnn2CCN2CCOCC2)c1`, the melting point is 248 to 250 °C (dec.).

As for `COc1ccc(-c2ccn(-c3ccc4c(cnn4CCN4CCCC4)c3)c(=O)c2)c(OC)c1.Cl`, the melting point was in the range of 95 to 115 °C.

Compound `Cc1ccccc1-c1ccn(-c2ccc3c(cnn3CCN3CCCC3)c2)c(=O)c1.Cl` registered a melting point of 80 to 95 °C.

As to `CC1CC=C(c2ccn(-c3ccc4c(cnn4CCN4CCCC4)c3)c(=O)c2)CC1.Cl` (stereo not shown), the melting point was in the range of 256 to 260 °C.

In turn, `Cl.O=c1cc(-c2ccc(OC(F)(F)F)cc2)ccn1-c1ccc2c(cnn2CCN2CCCC2)c1` displayed a melting point of 202 to 209 °C.

In turn, `CC(C)Oc1ccc(-c2ccn(-c3ccc4c(cnn4CCN4CCCC4)c3)c(=O)c2)cc1.Cl` yielded a melting point of 235 to 250 °C.

In turn, `Cc1cc(OCc2ccccc2)ccc1-c1ccn(-c2ccc3c(cnn3CCN3CCCC3)c2)c(=O)c1.Cl` displayed a melting point of 75 to 85 °C.

`Cl.O=c1cc(-c2ccc(C(F)(F)F)cc2)ccn1-c1ccc2c(cnn2C[C@H](O)CN2CCCC2)c1` registered a melting point of 116 to 119 °C.

On to `COc1ccc(-c2ccn(-c3ccc4c(cnn4CCN4CCCC4)c3)c(=O)c2)cc1.Cl`, for which the melting point is 105 to 110 °C.

Turning to `Cl.O=c1cc(-c2ccc(Cl)cc2F)ccn1-c1ccc2c(cnn2CCN2CCCC2)c1`, the melting point was 215 to 230 °C.

`CN(C)CCn1ncc2cc(-n3ccc(-c4ccc(C(F)(F)F)cc4)cc3=O)ccc21.Cl` came in with a melting point of 222 to 224 °C.

For the compound `O=c1cc(-c2cccc3ccccc23)ccn1-c1ccc2c(cnn2CCN2CCCC2)c1` (as salt: hydrochloride), the melting point is 128 to 133 °C.

Take `Cl.O=c1cc(-c2cc3ccccc3o2)ccn1-c1ccc2c(cnn2CCN2CCCC2)c1`: the melting point was 256 to 260 °C.

With `COc1ccc2c(c1)cc(-c1ccn(-c3ccc4c(cnn4CCN4CCCC4)c3)c(=O)c1)n2C` [Example 65, 4-(5-Methoxy-1-methyl-1H-indol-2-yl)-1-(1-(2-(pyrrolidin-1-yl)ethyl)-1H-indazol-5-yl)pyridin-2(1H)-one dihydrochloride], the Ki in data set [1] was ~3 µM.

Compound `Cl.O=c1cc(-c2ccc(C(F)(F)F)cn2)ccn1-c1ccc2c(cnn2CCCN2CCCC2)c1` gave a melting point of 110 to 120 °C.

For `Cc1ccc(-c2ccn(-c3ccc4c(cnn4CCN4CCCC4)c3)c(=O)c2)cc1.Cl`, the melting point was in the range of 240 to 246 °C.

Consider `Cl.O=c1cc(-c2ccc(C(F)(F)F)cc2)ccn1-c1ccc2c(cnn2CCN2CC3CC2CO3)c1` (stereo not shown), for which the melting point was 148 to 150 °C.

As for `Cl.O=c1cc(-c2cccc(Cl)c2)ccn1-c1ccc2c(cnn2CCN2CCCC2)c1`, the melting point lay within 118 to 125 °C.

In turn, `Cl.O=c1cc(-c2ccc(F)cc2F)ccn1-c1ccc2c(cnn2CCN2CCCC2)c1` gave a melting point of 235 to 255 °C.

Compound `Cl.O=c1cc(-c2ccc(F)cc2)ccn1-c1ccc2c(cnn2CCN2CCCC2)c1` returned a melting point of 115 to 120 °C.

On to `Cl.O=c1cc(-c2ccc(N3CCCCC3)cc2)ccn1-c1ccc2c(cnn2CCN2CCCC2)c1`, for which the melting point lay in the range of 80 to 90 °C.

`Cl.O=c1cc(-c2ccc(-n3cccn3)cc2)ccn1-c1ccc2c(cnn2CCN2CCCC2)c1` gave a melting point of 271 to 275 °C.

`Cl.O=c1cc(-c2ccc(OC(F)(F)F)cc2F)ccn1-c1ccc2c(cnn2CCN2CCCC2)c1`: the melting point fell in the range of 215 to 225 °C.

`COc1ccc(-c2ccn(-c3ccc4c(cnn4CCN4CCCC4)c3)c(=O)c2)c(Cl)c1.Cl`: the melting point was in the range of 225 to 235 °C.

`COc1ccc(-c2ccn(-c3ccc4c(cnn4CCN4CCCC4)c3)c(=O)c2)c(C)c1.Cl`: the melting point is 205 to 215 °C.

The compound `Cl.Cn1ncc2cc(-c3ccn(-c4ccc5c(cnn5CCN5CCCC5)c4)c(=O)c3)ccc21` came in with a melting point of 55 to 65 °C.

Regarding `Cl.O=c1cc(-c2ccc(C(F)(F)F)cc2)ccn1-c1ccc2c(cnn2CCN2CCNCC2)c1`, the melting point is 222 to 224 °C (dec.).

Take `COc1ccc(-c2ccn(-c3ccc4c(cnn4CCN4CCCC4)c3)c(=O)c2)c(F)c1.Cl`: the melting point fell in the range of 230 to 240 °C.

Regarding `Cl.NCCCn1ncc2cc(-n3ccc(-c4ccc(C(F)(F)F)cc4)cc3=O)ccc21`, the melting point was 222 to 224 °C (dec.).

In turn, `Cl.O=c1cc(-c2cc3ccccc3s2)ccn1-c1ccc2c(cnn2CCN2CCCC2)c1` registered a melting point of 260 to 264 °C.

`CN(C)C[C@@H](O)Cn1ncc2cc(-n3ccc(-c4ccc(C(F)(F)F)cc4)cc3=O)ccc21.Cl` came in with a melting point of 210 to 213 °C.

On to `Cl.O=c1cc(-c2ccc(Cl)cc2)ccn1-c1ccc2c(cnn2CCN2CCCC2)c1`, for which the melting point was 255 to 260 °C (dec.).

With `CC1CCC(c2ccn(-c3ccc4c(cnn4CCN4CCCC4)c3)c(=O)c2)CC1.Cl` (stereo not shown), the melting point lay within 80 to 85 °C.

In turn, `O=c1cc(-c2ccc3ccccc3n2)ccn1-c1ccc2c(cnn2CCN2CCCC2)c1` (as salt: hydrochloride) had a melting point of 220 to 225 °C.

`Cl.O=c1cc(-c2ccc(C(F)(F)F)cc2)ccn1-c1ccc2c(cnn2C[C@@H]2CCCN2)c1` displayed a melting point of 241 to 245 °C.

Turning to `CCOc1ccc(-c2ccn(-c3ccc4c(cnn4CCN4CCCC4)c3)c(=O)c2)cc1.Cl`, the melting point lay in the range of 255 to 265 °C.

The compound `Cc1ccc2oc(-c3ccn(-c4ccc5c(cnn5CCN5CCCC5)c4)c(=O)c3)nc2c1.Cl` displayed a melting point of 270 to 280 °C.

Regarding `Cc1ccc(-c2ccn(-c3ccc4c(cnn4CCN4CCCC4)c3)c(=O)c2)nc1.Cl`, the melting point was in the range of 230 to 234 °C.

Take `Cl.O=c1cc(-c2ccc3c(c2)OCO3)ccn1-c1ccc2c(cnn2CCN2CCCC2)c1`: the melting point fell in the range of 75 to 85 °C.
